This note sets out measurements from PubChem BioAssay (NCI).

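96-well plates; 48 h exposure; 5 concentrations. Endpoints by linear interpolation between flanking doses. Not reached: highest tested concentration assigned. TGI denotes the concentration required for complete inhibition of growth.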

What all share (assay): growth of human tumour cells (NCI), 48 h
Assay [1] relates to MALME-3M melanoma.
In assay [2] the test system is MDA-MB-231 breast.
Assay [3] deals with OVCAR-5 ovarian.
The subject of assay [4] is EKVX NSCLC.
Assay [5] concerns RXF 393 renal.
For assay [6], the system named is DU-145 prostate.
The test system of assay [7] is SK-MEL-28 melanoma.
In assay [8] the test system is A549 NSCLC.
The subject of assay [9] is MDA-MB-435.
Assay [10] has as its system U251 CNS.

As for `NC(=O)C(N)Cc1ccc(O)cn1` (stereo not given), the TGI in assay [1], in assay [2], in assay [3], in assay [4], in [5] and in [6] was over 100 µM in each case. The TGI in [7], in [8], in assay [9] and in [10] was over 100 µM throughout.
As for `O=Cc1ccc2c(c1)CC1(C2)Cc2ccc3c(c2C1)CCC3` (stereo not given), the TGI in assay [1] was 21.8 µM; in [2] it was 14.2 µM; in [3], over 69.2 µM; in [4], over 59.2 µM; in assay [5], 28.5 µM; in assay [6], over 69 µM. Moreover, the TGI is 29.5 µM in assay [7], over 100 µM in [8], 7.4 µM in assay [9] and 22.7 µM in [10].
For `C=C1C[C@@H]2O[C@H]3[C@H]4[C@@H](C[C@@H](C)[C@@H](OC(C)=O)[C@H]42)[C@@H](C)CO[C@@]3(C)[C@H](OC(C)=O)C[C@H]1O`, the TGI in [1], in [2], in [3], in assay [4], in assay [5] and in assay [6] was over 100 µM in each case. For the same compound, the TGI in assay [7], in assay [8], in [9] and in assay [10] was over 100 µM in each case.
Take `COCCOCc1nc(C#N)c(N)o1`: the TGI in [1], in assay [2], in [3], in assay [4], in [5] and in [6] was over 100 µM each time. Further, the TGI in assay [7], in assay [8], in assay [9] and in assay [10] was over 100 µM in each case.
On to `O=[N+]([O-])c1cc2oc(COc3ccccc3)nc2cc1Cl`, for which the TGI is 94.5 µM in [1]; 69.4 µM in assay [2]; over 100 µM in [3]; 73.6 µM in assay [4]; 69.5 µM in assay [5]; over 100 µM in assay [6]. For the same compound, the TGI in assay [7] was over 100 µM; in assay [8] it was over 100 µM; in [9], 52.4 µM; in assay [10], 52.5 µM.
Consider `COc1ccc2nc3ccc(OC)cc3c(S(=O)CCCl)c2c1` (stereo not given), for which the TGI in [1] came out at 3.57 µM; in assay [2], 11.8 µM; in [3] it was 34.5 µM; in assay [4] it was 25.6 µM; in [5], 16.2 µM; in assay [6] it was 4.66 µM. The TGI in [7] was 12.4 µM; in [8], 48 µM; in assay [9], 17.1 µM; in [10], over 52.2 µM.
On to `O/N=C1/COC(C(F)(F)F)(C(F)(F)F)C1`, for which the TGI in assay [1], in assay [2], in [3], in [4], in assay [5] and in [6] was over 100 µM each time. In addition, the TGI in assay [7], in [8], in [9] and in [10] was over 100 µM in each case.
On to `COc1nc(C(=O)NNC(=O)c2nc(OC)c3ccccc3c2-c2ccccc2)c(-c2ccccc2)c2ccccc12`, for which the TGI in assay [1], in [2], in assay [3], in [4], in assay [5] and in assay [6] was over 100 µM throughout. In addition, the TGI in assay [7], in assay [8], in assay [9] and in assay [10] was over 100 µM each time.
For `O=c1[nH]c(-c2ccc3ccccc3c2)nc2ccccc12`, the TGI in [1], in [2], in [3], in assay [4], in assay [5] and in assay [6] was over 100 µM in each case. The TGI in assay [7], in assay [8], in assay [9] and in assay [10] was over 100 µM in each case.
On to `O=C(O)c1n[nH]nc1Cl`, for which the TGI in [1], in [2], in assay [3], in [4], in assay [5] and in assay [6] was over 100 µM in each case. Also, the TGI in [7], in [8], in [9] and in assay [10] was over 100 µM throughout.
On to `CC(C)(Cc1ccccc1)NC1=NCCO1`, for which the TGI in assay [1], in assay [2], in [3], in [4], in assay [5] and in assay [6] was over 100 µM in each case. Further, the TGI in [7], in [8], in assay [9] and in [10] was over 100 µM each time.
In the case of `NC(Cc1cccc([N+](=O)[O-])c1)C(=O)O` (stereo not given), the TGI in [1], in [2], in assay [3], in assay [4], in assay [5] and in assay [6] was over 100 µM in each case. The TGI in assay [7], in assay [8], in assay [9] and in [10] was over 100 µM throughout.
